Assay results: article PMC9923736, “Optimized Ebselen-Based Inhibitors of Bacterial Ureases with Nontypical Mode of Action” (Journal of Medicinal Chemistry, 2023)

Experiments:
[1] = tested on: urease in living cells of P. mirabilis PCM 543; test: Inhibition of ureolysis in whole P. mirabilis cells in PBS buffer (nongrowth conditions); settings: Proteus mirabilis, read-out: IC50 (PBS buffer)
[2] = tested on: urease in living cells of P. mirabilis PCM 543; test: Inhibition of ureolysis in whole P. mirabilis cells in artificial urine model; settings: Proteus mirabilis, read-out: IC90 (urine model)
[3] = target: Sporosarcina pasteurii urease (Sporosarcina pasteurii, UniProt P41020); test: Inhibition of purified S. pasteurii urease (Ki; phenol-hypochlorite/Berthelot ammonia assay); assay type: biochemical; settings: for mechanism of inhibition: S. pasteurii urease, Lineweaver-Burk plots / reaction progress curves
Sequence of Sporosarcina pasteurii urease (P41020 whole entry, looked up): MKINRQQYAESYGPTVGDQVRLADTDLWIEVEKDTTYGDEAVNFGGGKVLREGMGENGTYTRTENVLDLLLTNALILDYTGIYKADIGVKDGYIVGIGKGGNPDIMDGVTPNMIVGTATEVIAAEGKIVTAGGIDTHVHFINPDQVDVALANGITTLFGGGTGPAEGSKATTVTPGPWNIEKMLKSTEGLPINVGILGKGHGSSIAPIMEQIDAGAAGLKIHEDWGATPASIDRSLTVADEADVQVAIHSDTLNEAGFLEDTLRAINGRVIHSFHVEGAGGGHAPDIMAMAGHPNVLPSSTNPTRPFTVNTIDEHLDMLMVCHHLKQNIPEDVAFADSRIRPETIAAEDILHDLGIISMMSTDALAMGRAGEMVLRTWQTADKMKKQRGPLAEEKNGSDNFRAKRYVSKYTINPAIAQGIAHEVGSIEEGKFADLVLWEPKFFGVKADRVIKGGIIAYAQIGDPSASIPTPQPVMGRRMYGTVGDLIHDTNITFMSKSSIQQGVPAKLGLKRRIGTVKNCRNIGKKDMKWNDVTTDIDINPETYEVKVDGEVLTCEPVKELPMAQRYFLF
Description: The values of kinetic parameters ( and KM
vmax) of the purified enzyme were determined by fitting the initial reaction velocities measured in a range of urea concentrations to the Michaelis-Menten equation by nonlinear regression. The values […]
Enzymatic reactions were carried out in 3 mM phosphate buffer pH 7.5 at 37 °C. The kinetic parameters of urease in the noninhibited reaction ( and ) were obtained by measuring the Kmvmax […]
activity was defined as the amount of enzyme required to produce 1 µM ammonia per min under […]
S2.1. Inhibition studies.
S. pasteuriipM urease in assay mixtures (200 μL total volume) containing increasing concentrations […]
The values were calculated using the appropriate equations in Ki the GraphPad Prism 5 software. The inhibition mechanism was determined using Lineweaver-Burk plots after testing at least five inhibitor concentrations in the range depending on their inhibitory strength (exemplified in Figure S26).
S2.2. Inhibition studies. […]
and 52), ammonia concentration versus time, for urea hydrolysis catalyzed by S. pasteurii urease in the absence and presence of inhibitors were performed in standard assay mixtures at a single urea concentration (final concentration 25 mM) and at different inhibitor concentrations according to their inhibitory strength. Enzymatic hydrolysis of urea was initiated by adding […] of urease solution […]
min in samples taken from reaction mixtures at set time intervals. The reaction mixtures were stirred throughout the measurement period. The nonlinear reaction progress curves with time-dependent inhibitors of urease (for the nonincubated reaction and under conditions: [I]0 ≫ [E] 0) were described using the integrated equation: , (where is the concentration [P]=vt+(v+v)(1―e―kappt)1P […]
of the reaction product formed at time t, which is the reaction time, and are the reaction initial vivs and steady-state rates, respectively, and is the apparent first-order rate constant for the kapp interconversion between and ). […] The vivs […]
equilibrium dissociation constants of the initial and the final enzyme conformation complex EI EI ∗ […]
is the Michaelis-Menten constant, maximum rate of enzyme in a noninhibited reaction, vmax S and I are substrate and inhibitor concentration). The mechanism of inhibitor binding was determined using steady-state kinetic measurements (Figures S27 and S28). […]
pM) was pre-incubated with increasing inhibitor concentrations in separate aliquots of reaction buffer prior to the initiation of the reaction by urea incorporation at a concentration ranging from 1 to 60 mM. The incubation time was different for the assayed inhibitors, depending on when equilibrium was achieved between enzyme , inhibitor and enzyme-inhibitor complexes ( and : (E)(I)EI EI ∗ E + I ↔EI ↔ EI ∗ ) . The values were calculated using the appropriate equations implemented in Ki the GraphPad Prism 5 software. The inhibitors were dissolved in water or DMF (the solvent was […]
Urease activity was determined using the […]
run in triplicate for the compounds analyzed.

antigen 85 complex = antigen 85 complex of Mycobacterium tuberculosis; cited from earlier work
[4] = target: bacterial thioredoxin reductase, Bacillus anthracis; settings: cited from earlier work
glutamate dehydrogenase = settings: cited from earlier work
[5] = target: methionine aminopeptidase 2; settings: cited from earlier work
histone deacetylases = target: histone deacetylases; design: method as in PMID 22047054; settings: cited from earlier work

Row | SMILES | IC50 [1] | IC90 [2] | Ki [3] | further results
1 | O=c1c2ccccc2[se]n1-c1ccccc1O [compound 34, 2-(2-Hydroxyphenyl)-1,2-benzisoselenazol-3(2H)-one] | 16.8 ± 1.4 nM | 148 ± 6 nM | 1.42 ± 0.14 nM | 
2 | O=c1c2ccccc2[se]n1-c1ccccc1F [compound 31, 2-(2-Fluorophenyl)-1,2-benzisoselenazol-3(2H)-one] | 7.48 ± 0.67 nM | 34.7 ± 2.7 nM | 0.974 ± 0.089 nM | 
3 | O=c1c2ccccc2[se]n1-c1ccccc1Cl [compound 32, 2-(2-Chlorophenyl)-1,2-benzisoselenazol-3(2H)-one] | 13.6 ± 1.5 nM | 87.7 ± 8.3 nM | 13.7 ± 0.96 nM | 
4 | O=c1c2ccccc2[se]n1-c1cc(Cl)ccc1Cl [compound 51, 2-(2,5-Dichlorophenyl)-1,2-benzisoselenazol-3(2H)-one] | 21.2 ± 1.5 nM | 254 ± 14 nM | 0.00885 nM | 
5 | COc1ccc(-n2[se]c3ccccc3c2=O)c(C)c1 [compound 43, 2-(4-Methoxy-2-methylphenyl)-1,2-benzisoselenazol-3(2H)-one] | 25.1 ± 2 nM | 148 ± 10 nM | 7.3 ± 0.56 nM | mechanism of inhibition [3]: Slow binding inhibition
6 | COc1ccc(Cl)cc1-n1[se]c2ccccc2c1=O [compound 53, 2-(5-Chloro-2-methoxyphenyl)-1,2-benzisoselenazol-3(2H)-one] | 21.9 ± 1.7 nM | 82.2 ± 11.3 nM | 1.63 ± 0.12 nM | 
7 | Cc1ccc(-n2[se]c3ccccc3c2=O)c(Cl)c1 [compound 46, 2-(2-Chloro-4-methylphenyl)-1,2-benzisoselenazol-3(2H)-one] | 20 ± 1.7 nM | 176 ± 12 nM | 3.26 ± 0.23 nM | 
8 | Cc1ccc(Cl)c(-n2[se]c3ccccc3c2=O)c1 [compound 50, 2-(2-Chloro-5-methylphenyl)-1,2-benzisoselenazol-3(2H)-one] | 54 ± 2.7 nM | 243 ± 17 nM | 1.63 ± 0.13 nM | 
9 | COc1cccc(-n2[se]c3ccccc3c2=O)c1 [compound 37, 2-(3-Methoxyphenyl)-1,2-benzisoselenazol-3(2H)-one] | 11.5 ± 1.3 nM | 53.8 ± 3.7 nM | 1.07 ± 0.08 nM | mechanism of inhibition [3]: Slow binding inhibition
10 | O=c1c2ccccc2[se]n1-c1ccc(F)cc1F [compound 44, 2-(2,4-Difluorophenyl)-1,2-benzisoselenazol-3(2H)-one] | 17 ± 1.8 nM | 130 ± 16 nM | 0.0167 ± 0.0017 nM | 
11 | O=c1c2ccccc2[se]n1-c1ccc(F)cc1Cl [compound 47, 2-(2-Chloro-4-fluorophenyl)-1,2-benzisoselenazol-3(2H)-one] | 22.7 ± 2.5 nM | 126 ± 8 nM | 0.0058 ± 0.0004 nM | 
12 | O=c1c2ccccc2[se]n1-c1ccccc1 [compound 1, 2-phenyl-1,2-benzisoselenazol-3(2H)-one] | 29.2 ± 3.1 nM |  |  | Ki (antigen 85 complex): 63 nM; IC50 [4]: 1000 nM; IC50 (glutamate dehydrogenase): 360 nM; IC50 [5]: 2430 nM; Ki (histone deacetylases): 80 to 4420 nM
13 | COc1ccccc1-n1[se]c2ccccc2c1=O [compound 35, 2-(2-Methoxyphenyl)-1,2-benzisoselenazol-3(2H)-one] | 4.19 ± 0.45 nM | 18.8 ± 2.4 nM | 5.36 ± 0.43 nM | 
14 | CCCCOc1ccc(-n2[se]c3ccccc3c2=O)cc1 [compound 42, 2-(4-n-Butoxyphenyl)-1,2-benzisoselenazol-3(2H)-one] | 32.2 ± 3.8 nM | 224 ± 15 nM | 1.78 ± 0.18 nM | mechanism of inhibition [3]: Slow binding inhibition
15 | COc1ccc(-n2[se]c3ccccc3c2=O)cc1 [compound 41, 2-(4-Methoxyphenyl)-1,2-benzisoselenazol-3(2H)-one] | 15.9 ± 1.1 nM | 180 ± 10 nM | 44 ± 4.2 nM | 
16 | Cc1cc(-n2[se]c3ccccc3c2=O)ccc1Cl [compound 54, 2-(4-Chloro-3-methylphenyl)-1,2-benzisoselenazol-3(2H)-one] | 23.8 ± 2 nM | 124 ± 14 nM | 2.45 ± 0.16 nM | 
17 | O=c1c2ccccc2[se]n1-c1ccccc1Br [compound 33, 2-(2-Bromophenyl)-1,2-benzisoselenazol-3(2H)-one] | 26.9 ± 2.8 nM | 543 ± 26 nM | 6.79 ± 0.53 nM | 
18 | O=c1c2ccccc2[se]n1-c1ccc(F)cc1 [compound 39, 2-(4-Fluorophenyl)-1,2-benzisoselenazol-3(2H)-one] | 12.1 ± 1.4 nM | 145 ± 17 nM | 24.1 ± 2.6 nM | 
19 | Cc1ccc(Cl)cc1-n1[se]c2ccccc2c1=O [compound 48, 2-(5-Chloro-2-methylphenyl)-1,2-benzisoselenazol-3(2H)-one] |  |  | 75.2 ± 6.2 nM | 
20 | Cc1ccc(-n2[se]c3ccccc3c2=O)cc1 [compound 38, 2-(4-Methylphenyl)-1,2-benzisoselenazol-3(2H)-one] |  |  | 4.04 ± 0.32 nM | 
21 | O=c1c2ccccc2[se]n1-c1ccc(C(F)(F)F)cc1 [compound 40, 2-(4-Trifluoromethylphenyl)-1,2-benzisoselenazol-3(2H)-one] | 16 ± 1.3 nM | 100 ± 14 nM | 0.0363 ± 0.0039 nM | 
22 | O=c1c2ccccc2[se]n1-c1cc(Cl)ccc1F [compound 49, 2-(5-Chloro-2-fluorophenyl)-1,2-benzisoselenazol-3(2H)-one] | 11.8 ± 1 nM | 151 ± 20 nM | 0.0135 ± 0.0014 nM | 
23 | O=c1c2ccccc2[se]n1-c1cccc(F)c1 [compound 36, 2-(3-Fluorophenyl)-1,2-benzisoselenazol-3(2H)-one] | 8.86 ± 0.81 nM | 223 ± 17 nM | 1.89 ± 0.16 nM | 
24 | Cc1ccccc1-n1[se]c2ccccc2c1=O [compound 30, 2-(2-Methylphenyl)-1,2-benzisoselenazol-3(2H)-one] | 25 ± 2 nM | 121 ± 13 nM | 3.56 ± 0.32 nM | 
25 | COc1ccc(C)cc1-n1[se]c2ccccc2c1=O [compound 52, 2-(2-Methoxy-5-methylphenyl)-1,2-benzisoselenazol-3(2H)-one] | 11.8 ± 1.6 nM | 96.6 ± 8.1 nM | 7.11 ± 0.56 nM | mechanism of inhibition [3]: Slow binding inhibition
